According to patent US20160030409A1, “METHOD FOR RELIEVING CHRONIC PAIN” (priority 2014, published 2016):

Tested on: chronic non-malignant pain due to fibromyalgia and osteoarthritis
Assay: Trial experiment: Naropin injected into tender points of a patient with chronic non-malignant pain
Type: in vivo
Description: The patient was treated with the anesthetic Naropin® (generically known as ropivacaine), by injecting 0.5 cc of the anesthetic, by needle, into most tender points above and below the knees. Naropin was administered at a concentration of 5 mg/ml.
Subsequently, after sufficient time had elapsed for the previously injected Naropin to leave the patient's body, 0.5 cc of Naropin was once again administered, at a concentration of 5 mg/ml, using the Medical International Technology, Inc. (MIT) Med-Jet® H™ needleless, pressure-based injector. The injector was set at a pressure of 150 psig. For knee pain, most tender points, approximately five to eight, above and below the knees were injected. For hip pain, most tender points, approximately five, above the trochanteric bursa were injected. For back pain, most tender points, approximately ten on each side of the back, around the sacroiliac joints were injected. A single injection was administered for each tender point selected for injection. The administration of the local anesthetic by needleless injection left painful welts at each injection site, which took approximately two to three weeks to disappear.

time for welts to disappear (needleless injection, 150 psig): two to three | injection site reaction (needleless injection, 150 psig, each injection site): painful welts
SMILES: CCCN1CCCC[C@H]1C(=O)Nc1c(C)cccc1C [Naropin, ropivacaine]
tenderness of tender points after the welts had disappeared (0.5 cc at 5 mg/ml by Med-Jet H needleless pressure-based injector at 150 psig): no longer tender | pain after the welts had disappeared (0.5 cc at 5 mg/ml by Med-Jet H needleless pressure-based injector at 150 psig, tender points of knees, hip, back): pain was diminished | pain relief (0.5 cc at 5 mg/ml injected by needle into most tender points above and below the knees, middle-aged patient): No pain relief
